# Experimental data: US20160271139A1, “METHOD FOR NON-TOXIC TREATMENT FOR DRUG WITHDRAWAL” (DEMERX, INC., priority 2013, published 2016)
# “Also recorded” adds a separate entry of the source.
# Columns and labels:
# cynomolgus monkey = test: Single dose toxicity in cynomolgus monkeys; format: in vivo; conditions: oral gavage
# Experimental: The objective of the study was to determine the toxicity and toxicokinetic profile of noribogaine following oral (gavage) administration to the cynomolgus monkey. The test article was administered as follows in Table 1:
# Parameters monitored on the study included: mortality, clinical signs and body weights. Blood samples were collected for TK evaluation. […] The single dose maximum tolerated dose (MTD) was determined to be greater than 160 mg/kg based on the parameters monitored during the study.
# [1] = Plasma toxicokinetics in dogs, days 1 and 14; format: in vivo, dog; conditions: for T1/2 / Tmax: mean plasma
# Experimental: Noribogaine HCl was administered to groups of 4 male and 4 female dogs by single oral gavage daily for 14 days at doses of 0, 0.5, 1.0 and 5.0 mg/kg/day. An additional group of 4 male and 4 female dogs received either the vehicle control or 5.0 mg/kg/day for 14 days and were held for an additional 28 days after cessation of dosing to assess recovery from any potential drug-induced changes. The study was conducted under GLP guidelines and included comprehensive examinations of clinical signs, body weight, clinical pathology parameters, ophthalmologic examinations. ECG recordings and analyses of plasma for bioanalytical measurement of drug levels at appropriate intervals during the study. At the termination of the dosing phase and at the termination of the recovery phase, all dogs were subjected to a complete post-mortem examination including gross examination of major organs and histologic examination of an extensive list of tissues. Additional sections of brain were obtained from cerebrum, cerebellus, brain stem and spinal cord and examined histologically to evaluate potential effects on brain histopathology. In addition, these sections were examined with immunohistochemical stains for GFAP for evidence of gliosis and Calbindin for a more comprehensive examination of cerebellar Purkinje cells.
# [2] = Human pharmacokinetic study, single oral dose, serum levels (Example 6); format: in vivo; conditions: human serum, fasting
# Experimental: In double blind studies, fasting healthy volunteers (6 per cohort) were treated once orally with a tablet of noribogaine HCl. In escalating cohorts, the volunteers received 3 mg, 10 mg, 30 mg or 60 mg noribogaine.
# [3] = Plasma noribogaine pharmacokinetics in healthy volunteers (Example 7); format: in vivo, human; conditions: for AUC0-216 / AUC0-∞ / CL/F / Tmax / t1/2: mean
# [4] = Urine noribogaine and noribogaine glucuronide elimination in healthy volunteers; format: in vivo; conditions: human urine
# [5] = test system: healthy, drug-free male volunteers; test: Pupillary miosis by pupillometry in healthy volunteers; format: in vivo, human; conditions: single oral 3-60 mg, vs placebo p>0.9
# Experimental: Pulse oximetry and capnography data were collected continuously using a GE Carescape B650 monitoring system from 2 hours prior to dosing and until six hours after dosing, and thereafter at 12, 24, 48 and 72 hours post-dosing. […] Pupillary miosis was assessed by pupillometry.
# Dose-proportionality of AUC and Cmax was assessed using linear regression.
# [6] = test system: healthy, drug-free male volunteers; test: Cold pressor test in healthy volunteers; format: in vivo, human; conditions: single oral 3-60 mg, vs placebo p>0.9 and p=0.17
# Experimental: Analgesic effect was assessed based on duration of hand immersion in ice water and on visual analog scale (VAS) pain scores upon hand removal from the water bath.
# (§1) Safety and tolerability of noribogaine were tested in the group of volunteers from Example 1. […] Safety evaluations included clinical monitoring, recording of adverse events (AEs), safety laboratory tests, vital signs, ECO telemetry from −2 h to 6 h after dosing, and 12-lead electrocardiograms (ECGs) up to 216 hours post-dosing.
# [7] = test system: healthy, drug-free male volunteers; test: Safety and tolerability in healthy volunteers; format: in vivo, human
# Experimental: as §1
# [8] = test system: opioid-dependent participants; test: Efficacy in opioid-dependent participants: time to resumption of opioid substitution treatment; format: in vivo, human
# Experimental: (§2) The efficacy of noribogaine in humans was evaluated in opioid-dependent participants in a randomized, placebo-controlled, double-blind trial. In the first cohort, six patients were orally administered a single dose of 60 mg noribogaine, and three patients received placebo. In the second cohort, five patients were orally administered a single dose of 120 mg noribogaine, and three patients received placebo.
# [9] = test system: opioid-dependent participants; test: Safety (QT interval, adverse effects) in opioid-dependent participants; format: in vivo, human
# Experimental: as §2
# various animal species = test: Pre-clinical toxicity studies in various animal species (background); format: in vivo
# [10] = test system: animal models of addiction; conditions: cited from earlier work
# [11] = female dogs, Gr 2 - 0.5 mg/kg, D1
# [12] = female dogs, Gr 2 - 0.5 mg/kg, D14
# [13] = female dogs, Gr 3 - 1.0 mg/kg, D1
# [14] = female dogs, Gr 3 - 1.0 mg/kg, D14
# [15] = female dogs, Gr 4 - 5.0 mg/kg, D1
# [16] = female dogs, Gr 4 - 5.0 mg/kg, D14
# [17] = single oral dose 30 mg free base
# [18] = human plasma, single oral 3 mg (n = 6)
# [19] = human plasma, single oral 10 mg (n = 6)
# [20] = human plasma, single oral 30 mg (n = 6)
# [21] = human plasma, single oral 60 mg (n = 6)
# [22] = opioid-dependent participants, single oral 60 mg or 120 mg
compound,measurement,setting,value
CC[C@H]1C[C@H]2C[C@H]3c4[nH]c5ccc(O)cc5c4CCN(C2)[C@@H]13 [noribogaine],Single dose maximum tolerated dose (MTD),cynomolgus monkey,greater than 160 mg/kg
same,Mortality or treatment related clinical signs,cynomolgus monkey; doses up to and including 160 mg/kg,No mortality or treatment related clinical signs
same,T1/2,[1]; [11],1.0 h
same,Tmax,[1]; [11],0.5 h
same,T1/2,[1]; [12],1.1 h
same,Tmax,[1]; [12],1.0 h
same,T1/2,[1]; [13],1.4 h
same,Tmax,[1]; [13],0.8 h
same,T1/2,[1]; [14],1.6 h
same,Tmax,[1]; [14],0.5 h
same,T1/2,[1]; [15],4.3 h
same,Tmax,[1]; [15],0.6 h
same,T1/2,[1]; [16],5.7 h
same,Tmax,[1]; [16],0.6 h
same,Plasma level at 24 h post-dosing,"[1]; male and female dogs of Group 4 (5.0 mg/kg), Days 1 and 14",significant levels of noribogaine were still detected
same,Tmax,"[1]; male dogs, Gr 2 - 0.5 mg/kg, D1",0.7 h
same,Tmax,"[1]; male dogs, Gr 2 - 0.5 mg/kg, D14",0.7 h
same,Tmax,"[1]; male dogs, Gr 3 - 1.0 mg/kg, D1",0.9 h
same,Tmax,"[1]; male dogs, Gr 3 - 1.0 mg/kg, D14",0.8 h
same,Tmax,"[1]; male dogs, Gr 4 - 5.0 mg/kg, D1",0.6 h
same,Tmax,"[1]; male dogs, Gr 4 - 5.0 mg/kg, D14",0.9 h
same,time after administration at which mean Cmax was observed,[2]; single oral dose 3 mg free base,1.9 h
same,time after administration at which mean Cmax was observed,[2]; single oral dose 10 mg free base,2.9 h
same,mean Cmax,[2]; [17],55.0 ng/mL
same,time after administration at which mean Cmax was observed,[2]; [17],1.75 h
same,time after administration at which mean Cmax was observed,[2]; single oral dose 60 mg free base,1.75 h
same,Dose proportionality of Cmax and AUC,"[3]; human plasma, 3-60 mg",increased linearly with dose
same,Mean half-life estimates,"[3]; human plasma, across dose groups",28 to 50 h
same,Time of peak concentrations after oral dosing,"[3]; human plasma, across dose groups 3-60 mg",2 to 3 h
same,AUC0-216,[3]; [18],72.2 ng·h/mL
same,AUC0-∞,[3]; [18],74.2 ng·h/mL
same,CL/F,[3]; [18],41.4 L/h
same,Tmax,[3]; [18],1.9 h
same,t1/2,[3]; [18],40.9 h
same,AUC0-216,[3]; [19],251.4 ng·h/mL
same,AUC0-∞,[3]; [19],254.5 ng·h/mL
same,CL/F,[3]; [19],42.3 L/h
same,Tmax,[3]; [19],2.9 h
same,t1/2,[3]; [19],49.2 h
same,AUC0-216,[3]; [20],677.6 ng·h/mL
same,AUC0-∞,[3]; [20],700.4 ng·h/mL
same,CL/F,[3]; [20],46.9 L/h
same,Tmax,[3]; [20],1.8 h
same,t1/2,[3]; [20],27.6 h
same,AUC0-216,[3]; [21],1935.4 ng·h/mL
same,AUC0-∞,[3]; [21],1962.2 ng·h/mL
same,CL/F,[3]; [21],34.0 L/h
same,Tmax,[3]; [21],2.4 h
same,t1/2,[3]; [21],29.1 h
same,Volume of distribution,"[3]; human, across dose groups",1417 to 3086 L
same,Total urine noribogaine elimination (sum of noribogaine and noribogaine glucuronide),[4]; 30 mg dose group,1.16 mg
same,Total urine noribogaine elimination as share of the dose administered,[4]; 30 mg dose group,3.9%
same,Total urine noribogaine elimination (sum of noribogaine and noribogaine glucuronide),[4]; 60 mg dose group,0.82 mg
same,Total urine noribogaine elimination as share of the dose administered,[4]; 60 mg dose group,1.4%
same,Pupillary constriction (dark-adapted pupil diameter),[5],no evidence of pupillary constriction
same,"Analgesic effect (duration of hand immersion, VAS pain scores)",[6],no analgesic effect
same,Number of adverse events reported,"[7]; healthy volunteers, 3 mg dose group",five adverse events were reported by two subjects
same,Number of adverse events reported,"[7]; healthy volunteers, 10 mg dose group, single subject",one adverse event
same,Number of adverse events reported,"[7]; healthy volunteers, 30 mg dose group, single subject",one adverse event
same,"Oximetry, capnography, respiratory rate","[7]; healthy volunteers, 3-60 mg","no changes in oximetry or capnography, or changes in respiratory rate"
same,Vital signs or safety laboratory tests,"[7]; healthy volunteers, 3-60 mg",no changes in vital signs or safety laboratory tests of note
same,QTcF values >500 msec,"[7]; healthy volunteers, 3-60 mg, at any time",no QTcF values>500 msec at any time
same,"Adverse events, Mild","[7]; healthy volunteers, Dose 3 mg",Dizziness; also recorded: Epistaxis; also recorded: Headache; also recorded: Back pain
same,"Adverse events, Moderate","[7]; healthy volunteers, Dose 3 mg",Headache
same,"Adverse events, Mild","[7]; healthy volunteers, Dose 10 mg",Headache
same,"Adverse events, Mild","[7]; healthy volunteers, Dose 30 mg",Headache
same,Single increase in QTcF,"[7]; one subject dosed with 10 mg, at 24 hours post-dosing",> 60 ms
same,Time to resumption of opioids longer than that reported for untreated patients in a similar study,"[8]; first cohort, blinded: 60 mg noribogaine or placebo",~2 h
same,Average time to resumption of opioids,"[8]; first cohort, blinded: single oral 60 mg noribogaine (6 patients) or placebo (3 patients)",approximately 8.7 hours
same,Average time to resumption of OST,"[8]; second cohort, 120 mg, five presumed noribogaine-treated patients (those with QT prolongation)",approximately 26.8 hours
same,Average time to resumption of opioids,"[8]; second cohort, blinded: single oral 120 mg noribogaine (5 patients) or placebo (3 patients)",approximately 23 hours
same,Mean prolongation of the QT interval,"[9]; first cohort, 60 mg noribogaine or placebo",less than 10 ms
same,Adverse effects,[9]; [22],No adverse effects of noribogaine were observed in any of the participants
same,Hallucinatory effects,[9]; [22],no hallucinatory effects
same,Mean prolongation of the QT interval,"[9]; second cohort, 120 mg noribogaine or placebo",less than 40 ms
same,Toxicity at high doses,various animal species,"can cause convulsions and other CNS-related clinical signs, respiratory arrest and death"
same,Efficacy in animal models of addiction,"[10]; alcohol, cocaine and opiate dependence","effective in animal models of addiction to alcohol, cocaine and opiate dependence"
same,Psychotomimetic effects,[10]; animal model,had no activity
same,Drug-seeking behavior,[10]; various animal addiction models,significantly reduced drug-seeking behavior
